One series relates to MZ-CRC-1. Nature of the series: Cell growth curves, human cells. The settings on record: MZ-CRC-1, MTC, RET M918T, read-out: IC50 (95% CI), growth inhibition. Format: cell-based. As to the method:
(§1) The IC50 dose for all human RET-negative cells was >100.0 nM, confirming compound selectivity (Figure S8 and Table S4).
(§2) Nthy-ory-3-1 (10000 per well), TPC-1 (10000 per well), MZ-CRC-1 (100000 per well), TT (200000 per well), Lc-2/ad (100000 per well), BCPAP (10000 per well), 8505-C (10000 per well), PC-9 (10000 per well), A549 (10000 per well), CALU-1 (10000 per well), NIH3T3 RET/C634Y (10000 per well), and NIH3T3 HRAS/G12V (10000 per well) were seeded in six-well tissue culture plates. Cells were kept in 2% (TPC-1), 5% (Nthy-ori-3-1), or 10% (BCPAP, 8505-C, CALU-1, A549, PC-9, TT, MZ-CRC-1, and Lc-2/ad) fetal calf serum or in 2% (NIH3T3 RET/C634Y and HRAS/G12V) calf serum. Ba/F3 cells (200000 per well in 2 mL) were seeded in six-well tissue culture plates and kept in 10% fetal calf serum. The day after plating, different concentrations of the drug or vehicle were added to the medium and changed every 2–3 days. Cells were counted every day (Ba/F3), every 2 days (fibroblasts), or every 2–3 days (human cell lines). To compare cell growth, we performed an unpaired Student’s t test using the Instat software program (Graphpad Software Inc.). All P values were two-sided, and differences were considered to be statistically significant at P < 0.02. IC50 doses were calculated through a curve fitting analysis from last day of growth curves using the PRISM software program (Graphpad Software Inc.).
(§3) Supplementary Table S4: NPA101.3 growth inhibitory effect on human cells.
(§4) *MTC (medullary thyoroid carcinoma); PTC (papillary thyroid carcinoma); ATC
(§5) (anaplastic thyroid carcinoma); LADC (lung adenocarcinoma)

In another series the test system is TT. Nature of the series: Cell growth curves, human cells. Format: cell-based. The settings on record: MTC, RET C634W, read-out: IC50 (95% CI), growth inhibition. As to the method:
as §1, §2, §3, §4, §5

The test system of the next series is Lc-2/ad. Put plainly: Cell growth curves, human cells. The settings on record: LADC, CCDC6-RET, read-out: IC50 (95% CI), growth inhibition. Type of series: cell-based. How it is done: as §1, §2, §3, §4, §5
Series [1] relates to RET-driven Ba/F3 cells (RET/C634R, RET/M918T, CCDC6-RET). Put plainly: Cell growth curves, RET-driven Ba/F3 cells taken together. Format: cell-based, murine. The settings on record: Mus musculus, BaF3; range over RET-transfected Ba/F3 lines; read-out: IC50, RET-driven Ba/F3 cell proliferation.
Text: The murine pro-B cell line Ba/F3 requires IL-3 (interleukin 3) for proliferation and survival; this dependency is bypassed by active tyrosine kinases. Therefore, the Ba/F3 cell line is a standard cell culture model for determining the activity and drug-mediated inhibition of tyrosine kinases.[42] Accordingly, stable transfection of RET/C634R, RET/M918T, and CCDC6-RET oncoproteins promotes IL-3-independent growth (Figure 5).
as §2, with “The day after plating, different concentrations of the drug or vehicle were added to the medium and changed every 2–3 days.” left out, “To compare cell growth, we performed an unpaired Student’s t test using the Instat software program (Graphpad Software Inc.). All P values were two-sided, and differences were considered to be statistically significant at P < 0.02.” left out

For another series, the system named is NIH3T3 HRAS/G12V tumors. Nature of the series: Mouse xenograft, NIH3T3 HRAS/G12V. Format: in vivo. How it is done: In vivo target (RET and VEGFR2) inhibition was studied by treating animals grafted with NIH3T3 RET/C634Y cells at different doses (0.3, 1, or 3 mg/kg/day p.o.) of NPA101.3 for 2 days and then performing Western blot analysis on protein extracts. […] Then, to determine antitumorigenic activity and to better distinguish RET- and VEGFR2-mediated effects, we tested NPA101.3 in nude mice transplanted with NIH3T3 cells transformed by either RET/C634Y or HRAS/G12V. Before tumors appeared, animals were treated daily with NPA101.3 (1.0, 3.0, or 10.0 mg/kg/day) or left untreated. […] Still, VEGFR2 inhibition was detected also in RAS-driven tumors, an effect that might explain the, albeit reduced, effect of the drug on their growth (Figure S13). Importantly, as predicted, no trace of NPA101.3 demethyl metabolites was detected after 1 or 4 h from oral dosing in mice (Figure S14).
Figure 6 Effects of NPA101.3 on in vivo tumor growth. NIH3T3 cells transformed by RET/C634Y or HRAS/G12V were inoculated subcutaneously into nu/nu mice. After 4 days, animals were randomly assigned to receive for the indicated time periods the compound (1.0, 3.0, or 10 mg/kg/day) (24 mice; 8 mice/group for 1, 3, and 10 mg/kg doses) or vehicle (8 mice) by oral gavage. The average size of tumors is reported ± SD.
NPA101.3 was dissolved in 80% H2O, 19.875% Tween 20, and 0.125% xanthan gum. The formulation was stored at room temperature and vortexed prior to administration. NIH3T3 RET/C634Y (200000) or NIH3T3 HRAS/G12V (50000) cells were inoculated subcutaneously into the dorsal portion (both sides) of 6-week-old female BALB/c nu/nu mice (32 mice/cell line) (Jackson Laboratories, Bar Harbor, ME). After 4 days, before tumors had appeared, animals were randomly assigned to receive NPA101.3 (1.0, 3.0, or 10 mg/kg/day) (8 mice/group) or vehicle control (8 mice) by oral gavage. Tumor diameters were measured with caliper every 2–3 days. Tumor volumes (V) were calculated by the rotational ellipsoid formula V = A × B^2/2 (A is the axial diameter, and B is the rotational diameter). […]

Another series concerns the target T1, hERG (Homo sapiens, UniProt Q12809).
T1 construct: host or cells: HEK293, tetracycline-inducible hERG
Put plainly: hERG patch-clamp assay. Type of series: cell-based. For orientation: Block of hERG is tested as a sign of cardiac risk.

“Also recorded” adds a separate entry of the source.

A word on the inhibition: it is the change of the read-out against control, counted positive when it falls. Read a high inhibition as strong suppression.

T1 sequence (Q12809 whole entry): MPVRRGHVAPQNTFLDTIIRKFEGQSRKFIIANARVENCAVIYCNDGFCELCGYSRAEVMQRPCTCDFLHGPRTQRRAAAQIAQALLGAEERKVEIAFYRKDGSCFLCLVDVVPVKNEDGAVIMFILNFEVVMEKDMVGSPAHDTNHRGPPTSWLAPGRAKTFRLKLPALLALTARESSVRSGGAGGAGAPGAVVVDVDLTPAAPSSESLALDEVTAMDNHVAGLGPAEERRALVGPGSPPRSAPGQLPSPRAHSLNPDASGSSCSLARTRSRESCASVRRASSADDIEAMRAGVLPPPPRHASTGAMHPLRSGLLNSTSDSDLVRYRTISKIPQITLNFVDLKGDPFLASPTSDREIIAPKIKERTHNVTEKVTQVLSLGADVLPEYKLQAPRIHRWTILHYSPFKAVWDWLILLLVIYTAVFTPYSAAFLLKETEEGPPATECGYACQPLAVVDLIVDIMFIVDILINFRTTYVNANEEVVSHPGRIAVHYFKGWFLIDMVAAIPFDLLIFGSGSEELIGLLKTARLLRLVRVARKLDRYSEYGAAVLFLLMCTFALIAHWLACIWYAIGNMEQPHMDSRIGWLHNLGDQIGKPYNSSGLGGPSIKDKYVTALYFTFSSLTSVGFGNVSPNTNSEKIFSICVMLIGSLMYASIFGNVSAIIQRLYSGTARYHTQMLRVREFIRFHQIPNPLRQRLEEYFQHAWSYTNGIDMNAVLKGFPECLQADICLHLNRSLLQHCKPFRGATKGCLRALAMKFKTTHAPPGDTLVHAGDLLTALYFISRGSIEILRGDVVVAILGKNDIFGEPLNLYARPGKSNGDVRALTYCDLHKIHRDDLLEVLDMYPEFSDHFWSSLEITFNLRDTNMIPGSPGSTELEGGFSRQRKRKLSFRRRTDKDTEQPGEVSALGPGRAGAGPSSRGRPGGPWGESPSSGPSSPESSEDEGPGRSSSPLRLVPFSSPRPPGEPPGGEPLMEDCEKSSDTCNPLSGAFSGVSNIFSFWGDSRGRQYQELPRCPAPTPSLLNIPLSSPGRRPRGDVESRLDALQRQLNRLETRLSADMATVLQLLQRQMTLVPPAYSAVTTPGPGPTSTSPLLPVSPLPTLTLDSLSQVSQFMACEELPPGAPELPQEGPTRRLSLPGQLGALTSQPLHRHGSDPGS

`CC(C)(C)c1cc(NC(=O)Cc2ccc(-n3cnc4cc(-c5ccc(S(C)(=O)=O)cc5)ccc43)cc2)no1` [NPA101.3]: the IC50 in the series with MZ-CRC-1 is 2.21 nM; with TT, 2.19 nM; with Lc-2/ad, 3.6 nM; in series [1] it was 1.6 to 3.1 nM. Also, the “formation of tumors driven by HRAS/G12V” value with NIH3T3 HRAS/G12V tumors (10 mg/kg/day oral, nu/nu mice) is listed as “weakened, but did not abrogate; also recorded: reduced, but did not abrogate”. For the same compound, the “RAS signaling (MAPK phosphorylation) in NIH3T3 HRAS/G12V tumors” value in the series with NIH3T3 HRAS/G12V tumors (3 h after last dose) is given as “virtually no effect”. The “VEGFR2 inhibition in RAS-driven tumors” value with NIH3T3 HRAS/G12V tumors (3 h after last dose) is “detected”. Also, the “hERG IC50 relative to RET IC50” value on hERG (hERG 7.57 μM vs RET 1 nM) is above 7000 fold. The same compound came in with an inhibition at 0.1 µM on hERG (human, HEK293 cells expressing inducible hERG, 0.1 µM) of 0.41%. In addition, testing at 1 µM on hERG (human, HEK293 cells expressing inducible hERG, 1 µM) gave an inhibition of 14.6%. The compound further registered an inhibition at 10 µM against hERG (human, HEK293 cells expressing inducible hERG, 10 µM) of 55.9%.

The record behind these values is PMC7901654, “Bioisosteric Discovery of NPA101.3, a Second-Generation RET/VEGFR2 Inhibitor Optimized for Single-Agent Polypharmacology” (Journal of Medicinal Chemistry, 2020).
